Source: patent publication US20050031651A1, “Therapeutic formulations for the treatment of beta-amyloid related diseases” (priority 2002, published 2005)
Read-outs that look alike come from different tables or passages of the source.

Experiments:
[1] = test system: mild and moderate Alzheimer's disease patients; conditions: reference value, cited from earlier work
amyloid deposits = conditions: mice genetically prone to overproduce amyloid-β; nine week period; cited from earlier work
[2] = test system: mild and moderate Alzheimer's disease patients; test: Change in ADAS-Cog score of Alzheimer's patients over nine months of treatment; format: in vivo, human; conditions: Mild + Moderate AD patients combined, observed, negative change = improvement
Description: In this example, mild and moderate patients have been treated with an alkanesulfonic acid, namely 3-amino-1-propanesulfonic acid, in combination with other therapeutic compounds used to diminish symptoms characteristic of Alzheimer's disease (e.g., loss of cognitive functions). The examples comprise the use of an alkanesulfonic acid in combination with cognitive enhancers such as acetylcholine esterase inhibitors (“AChEi”). The effect of these combination therapies on the change in ADAS-cog score in the patients was determined.
Patients were treated with the test alkanesulfonic acid for a period of 9 months. A group of patients received the test compound alone while another group were treated with the test compound in combination with an AChEi, namely donepezil.
Effect on ADAS-Cog. Upon entering the study, Alzheimer's patients were categorized as being “mild” or “moderate” according to their MMSE (“Mini Mental State Examination”) score. B.W.Rover, et al., “Mini-mental state exam in clinical practice.” Hospital Practice 22(1 A), 99 et seq. (1987). (According to this examination a MMSE score in the range of 19 to 26 was considered “mild,” and a score in the range 13 to 18 was considered “moderate”). Then, the change in mental function of these patients was analyzed by using their ADAS-Cog scores, which were recorded periodically over a nine month period. […]

Aβ CSF concentration = Aβ CSF concentration of patients at time 0 and 3 months (FPLC, ELISA); format: in vivo, human; conditions: for effect on CSF level of Aβ: 3-month period
Protocol: The alkanesulfonic acid used in the study is known to have an effect on the concentration of Aβ in the brain. We also determined the effect of test compound on the change in Aβ CSF levels of patients with mild to moderate Alzheimer's disease compared to that seen in patients treated with a triple combination of test compound with AChEi and statin.
Patients treated with alkanesulfonic acid test compound in the presence or absence of AChEi and statin were evaluated for their Aβ CSF concentration at time 0 and 3 months following the initiation of treatment with the alkanesulfonic acid. The change in AP42 CSF concentration was compared to the respective placebo group.
(§1) Methodology. CSF was obtained from patients before and after treatment with the test compound at daily doses of 100 mg, 200 mg, or 300 mg. CSF was fractionated by FPLC following treatment with formic acid, and then the Aβ containing fraction was lyophilised. The amount of Aβ peptide was measured using an ELISA assay (Biosource). […] The presence of the alkanesulfonic acid in the CSF was determined in patients who had received treatment for three months. In these patients, CSF was collected five hours following dosing, and levels of alkanesulfonic acid were determined by LC-MS/MS.

[3] = Presence of the alkanesulfonic acid in CSF of patients (LC-MS/MS); format: in vivo, human; conditions: patients treated three months, CSF collected five hours following dosing, 100, 200 or 300 mg daily
Protocol: as §1

AP42 in the brain = conditions: transgenic mice; previously shown; cited from earlier work
SM-4 cells = conditions: cited from earlier work

COc1cc2c(cc1OC)C(=O)C(CC1CCN(Cc3ccccc3)CC1)C2 (centres unmarked) [AchEi, donepezil]
Change in ADAS-Cog over 9 months ([1]; Mild AD patient group): +5.0 reference | Change in ADAS-Cog over 9 months ([1]; Moderate AD patient group): +2.5 reference

Oc1c(I)cc(Cl)c2cccnc12 [Clioquinol, 5-chloro-7-iodo-8-hydroxyquinoline]
adverse effects (amyloid deposits): no adverse effects | amyloid deposits (amyloid deposits): cut amyloid deposits in half

NCCCS(=O)(=O)O [Test compound, 3-amino-1-propanesulfonic acid]
Change in ADAS-Cog over 9 months [2]: −0.5 observed | Change in ADAS-Cog over 9 months ([2]; listed as test compound): −0.5 | effect on CSF level of Aβ (Aβ CSF concentration; 100 mg daily doses, majority of patients): stable Aβ CSF levels | effect on CSF level of Aβ (Aβ CSF concentration; 200 or 300 mg daily doses): reduce the CSF level of Aβ | decrease in Aβ CSF concentration (Aβ CSF concentration; mild to moderate AD patients, time 0 vs 3 months after start of treatment): 34% | difference in change of Aβ CSF concentration compared to the respective control group (Aβ CSF concentration; vs placebo (test compound) or vs AChEi and statin (triple therapy), 3 months): 49% | presence of the alkanesulfonic acid in CSF [3]: present in CSF of patients in a dose-dependent manner | levels of soluble and insoluble AP42 in the brain (AP42 in the brain): decrease the levels of both soluble and insoluble AP42

CCOC(=O)C(C)(C)Oc1ccc(Cl)cc1 [clofibrate, ethyl 2-(p-chlorophenoxy)-2-methylpropionate]
Aβ42 extracellular levels (SM-4 cells; SM-4 cells, concentration range of 50-500 μM): increase Aβ42 extracellular levels

Cc1cccc(Nc2cc(Cl)nc(SCC(=O)O)n2)c1C [pirinixic acid]
Aβ42 production or release from SM-4 cells (SM-4 cells; concentration-dependent manner): decrease in Aβ42 production or release
